Data from ChEMBL document CHEMBL3885881, “DrugMatrix”.

Organism: Rattus norvegicus
Type: toxicity, organism-based, Sprague-Dawley
Conditions: in vivo, ip, 24 h, route intraperitoneal, time 1 day, vehicle .1 % RSA/SALINE
[1] = 0 mg/kg, vehicle control, tissue Blood, dose level Control
[2] = 0 mg/kg, vehicle control, tissue Plasma, dose level Control
[3] = 0.01 mg/kg, tissue Blood, dose level High
[4] = 0.01 mg/kg, tissue Plasma, dose level High

Description: DrugMatrix - Regimen: Single

INTERLEUKIN 1 BETA, RAT
ABSOLUTE EOSINOPHIL [1]: 109.33 CELLS/uL
ABSOLUTE LYMPHOCYTE [1]: 13180.67 CELLS/uL
ABSOLUTE MONOCYTE [1]: 354 CELLS/uL
ABSOLUTE SEGMENTED NEUTROPHIL [1]: 1756 CELLS/uL
BASOPHIL [1]: 0%
EOSINOPHIL [1]: 0.67%
ERYTHROCYTE COUNT [1]: 5.38 x10E6/uL
HEMOGLOBIN [1]: 12.57 G/DL
LEUKOCYTE COUNT [1]: 15.4 x10E3/uL
LYMPHOCYTE [1]: 85%
MEAN CORPUSCULAR HEMOGLOBIN [1]: 23.37 pg
MEAN CORPUSCULAR HEMOGLOBIN CONCENTRATION [1]: 38.3 G/DL
NEUTROPHIL [1]: 12%
NUCLEATED RED BLOOD CELLS [1]: 0 /100WBC
PLATELET COUNT [1]: 832.33 x10E3/uL
ALANINE AMINOTRANSFERASE [2]: 37.33 u/L
ALBUMIN [2]: 4 G/DL
ALKALINE PHOSPHATASE [2]: 344.67 u/L
ASPARTATE AMINOTRANSFERASE [2]: 69.33 u/L
BLOOD UREA NITROGEN [2]: 13.67 mg/dL
CARBON DIOXIDE [2]: 28.33 mmol/L
CHLORIDE [2]: 99.67 MEQ/L
CHOLESTEROL [2]: 73.67 mg/dL
CREATINE PHOSPHOKINASE [2]: 270 u/L
CREATININE [2]: 0.19 mg/dL
GLUCOSE [2]: 176.33 mg/dL
LACTATE DEHYDROGENASE [2]: 160 u/L
PHOSPHORUS [2]: 13.47 mg/dL
POTASSIUM [2]: 6.77 MEQ/L
TOTAL BILIRUBIN [2]: 0.13 mg/dL
TOTAL PROTEIN [2]: 6.07 G/DL
URIC ACID [2]: 1.87 mg/dL
ABSOLUTE EOSINOPHIL [3]: 0 CELLS/uL
ABSOLUTE LYMPHOCYTE [3]: 13348 CELLS/uL
ABSOLUTE MONOCYTE [3]: 227.67 CELLS/uL
ABSOLUTE SEGMENTED NEUTROPHIL [3]: 3524.33 CELLS/uL
BASOPHIL [3]: 0%
EOSINOPHIL [3]: 0%
ERYTHROCYTE COUNT [3]: 5.11 x10E6/uL
HEMATOCRIT [3]: 31.33%
HEMOGLOBIN [3]: 12.13 G/DL
LEUKOCYTE COUNT [3]: 17.1 x10E3/uL
LYMPHOCYTE [3]: 78%
MEAN CORPUSCULAR HEMOGLOBIN CONCENTRATION [3]: 38.73 G/DL
MEAN CORPUSCULAR VOLUME [3]: 61.37 fL
NEUTROPHIL [3]: 20.67%
NUCLEATED RED BLOOD CELLS [3]: 0.33 /100WBC
PLATELET COUNT [3]: 933.33 x10E3/uL
ALANINE AMINOTRANSFERASE [4]: 30.33 u/L
ALKALINE PHOSPHATASE [4]: 386.33 u/L
ASPARTATE AMINOTRANSFERASE [4]: 62.67 u/L
CARBON DIOXIDE [4]: 25.33 mmol/L
CHOLESTEROL [4]: 66.67 mg/dL
CREATINE PHOSPHOKINASE [4]: 237 u/L
CREATININE [4]: 0.18 mg/dL
GLUCOSE [4]: 176.33 mg/dL
LACTATE DEHYDROGENASE [4]: 101 u/L
PHOSPHORUS [4]: 12.13 mg/dL
POTASSIUM [4]: 6.6 MEQ/L
TOTAL BILIRUBIN [4]: 0.13 mg/dL
TOTAL PROTEIN [4]: 6.07 G/DL
